In the experiment the test system is LpxC enzyme. Nature of the experiment: LpxC enzyme assay (RapidFire high-throughput mass spectrometry). The experiment is classed as biochemical. As to the method:
The standard LpxC assay consists of 0.2 nM LpxC enzyme, 1.0 μM UDP-3-O—(R-3-hydroxymyristoyl)-N-acetylglucosamine, and test compound, in assay buffer and 2% DMSO. Assay buffer is comprised of 25 mM HEPES, pH 7.3, 150 mM NaCl, 2.0 mM DTT, and 0.01% BSA. The enzyme reaction is carried out in a 96-well assay plate, in a final volume of 102 μL. Solutions of test compounds are prepared in 100% DMSO. Reaction additions, in order, are (1) 2.0 μL compound solution, (2) 80 μL of assay buffer, (3) 10 μL of 10 μM UDP-3-O—(R-3-hydroxymyristoyl)-N-acetylglucosamine (in assay buffer) and, (4) 10 μL of LpxC enzyme (20 nM in assay buffer) to initiate the reaction. In positive control reactions, addition (1) has 2.0 μL of 100% DMSO (without compound); these reactions are used as the total signal (TSB) value. Reactions are incubated at room temperature for 60 minutes when 10 μL of 1 N HCl is added to stop the reaction. The plate is shaken by hand for 10 seconds to ensure complete quenching. Assay plates are sealed with foil tape, and stored at −80° C. for 24-48 hr prior to analysis.
The concentrations of substrate and product in the reaction mixtures are determined with BioTrove's proprietary RapidFire™ high-throughput mass spectrometry (HTMS). Assay mixtures are partially purified with reverse phase chromatography, where they are washed with water containing 5 mM ammonium formate and eluted onto the mass spectrometer in 80% acetonitrile, 20% water, and 5 mM ammonium formate. The mass spectrometry peak areas of the substrate and product are measured to determine the concentration of these analytes. The assay signal is the percentage of substrate that is converted to product. Percent inhibition, % I, in test samples is determined from the following equation: […]

[1] abbreviates: concentration 0.10 (unit not given).
Where [2] appears, read: concentration 0.20 (unit not given).
Setting [3] is: concentration 0.39 (unit not given).
Where [4] appears, read: concentration 0.78 (unit not given).
Where [5] appears, read: concentration 1.56 (unit not given).
The mark [6] stands for this setting: concentration 3.13 (unit not given).
Where [7] appears, read: concentration 6.25 (unit not given).
[8] abbreviates: concentration 12.50 (unit not given).
Setting [9] is: concentration 25 (unit not given).
Where [10] appears, read: concentration 50 (unit not given).

On to `CN1CCN(c2ccc(NC(=O)[C@H](O)[C@@H](O)C(=O)N(C)C)cc2)CC1` [Compound 55], for which the “LpxC enzyme assay rating (% inhibition at indicated concentrations)” value by setting is: under setting [1], “C (less than 10% inhibition)”; under setting [2], “B (10-30% inhibition)”; under setting [3], “C (less than 10% inhibition)”; under setting [4], “B (10-30% inhibition)”; under setting [5], “B (10-30% inhibition)”; under setting [6], “B (10-30% inhibition)”. In addition, the “LpxC enzyme assay rating (% inhibition at indicated concentrations)” value by setting is: under setting [7], “C (less than 10% inhibition)”; under setting [8], “C (less than 10% inhibition)”; under setting [9], “B (10-30% inhibition)”; under setting [10], “B (10-30% inhibition)”.
In the case of `CCC(C)c1ccc(NC(=O)[C@H](O)[C@@H](O)C(=O)NC)cc1` (stereo partly drawn) [Compound 34], the “LpxC enzyme assay rating (% inhibition at indicated concentrations)” value was “C (less than 10% inhibition)” under setting [1]; “B (10-30% inhibition)” under setting [2]; “C (less than 10% inhibition)” under setting [3]; “B (10-30% inhibition)” under setting [4]; “B (10-30% inhibition)” under setting [5]; “C (less than 10% inhibition)” under setting [6]. Moreover, the “LpxC enzyme assay rating (% inhibition at indicated concentrations)” value was “B (10-30% inhibition)” under setting [7], “C (less than 10% inhibition)” under setting [8], “B (10-30% inhibition)” under setting [9] and “B (10-30% inhibition)” under setting [10].
For `O=C(Nc1ccc(-c2cc[nH]n2)cc1)[C@H](O)[C@@H](O)C(=O)N1CCCC1` [Compound 76], the “LpxC enzyme assay rating (% inhibition at indicated concentrations)” value under setting [1] was “C (less than 10% inhibition)”; the “LpxC enzyme assay rating (% inhibition at indicated concentrations)” value under setting [2] is reported as “C (less than 10% inhibition)”; the “LpxC enzyme assay rating (% inhibition at indicated concentrations)” value under setting [3] is on record as “C (less than 10% inhibition)”; the “LpxC enzyme assay rating (% inhibition at indicated concentrations)” value under setting [4] is “C (less than 10% inhibition)”; the “LpxC enzyme assay rating (% inhibition at indicated concentrations)” value under setting [5] is on record as “B (10-30% inhibition)”; the “LpxC enzyme assay rating (% inhibition at indicated concentrations)” value under setting [6] is listed as “C (less than 10% inhibition)”. Moreover, the “LpxC enzyme assay rating (% inhibition at indicated concentrations)” value is listed as “B (10-30% inhibition)” under setting [7], “C (less than 10% inhibition)” under setting [8], “C (less than 10% inhibition)” under setting [9] and “C (less than 10% inhibition)” under setting [10].
Turning to `CNC(=O)[C@H](O)[C@@H](O)C(=O)Nc1ccc(-c2cc[nH]n2)cc1` [Compound 42], the “LpxC enzyme assay rating (% inhibition at indicated concentrations)” value was “C (less than 10% inhibition)” under setting [1]; “C (less than 10% inhibition)” under setting [2]; “B (10-30% inhibition)” under setting [3]; “B (10-30% inhibition)” under setting [4]; “B (10-30% inhibition)” under setting [5]; “C (less than 10% inhibition)” under setting [6]. Also, the “LpxC enzyme assay rating (% inhibition at indicated concentrations)” value under setting [7] is “B (10-30% inhibition)”, the “LpxC enzyme assay rating (% inhibition at indicated concentrations)” value under setting [8] is on record as “B (10-30% inhibition)”, the “LpxC enzyme assay rating (% inhibition at indicated concentrations)” value under setting [9] is “B (10-30% inhibition)” and the “LpxC enzyme assay rating (% inhibition at indicated concentrations)” value under setting [10] is recorded as “C (less than 10% inhibition)”.
In the case of `CCCc1ccc(NC(=O)[C@H](O)[C@@H](O)C(=O)N2CCCC2)cc1` [Compound 67], the “LpxC enzyme assay rating (% inhibition at indicated concentrations)” value runs as follows: under setting [1], “B (10-30% inhibition)”; under setting [2], “B (10-30% inhibition)”; under setting [3], “B (10-30% inhibition)”; under setting [4], “C (less than 10% inhibition)”; under setting [5], “C (less than 10% inhibition)”; under setting [6], “C (less than 10% inhibition)”. In addition, the “LpxC enzyme assay rating (% inhibition at indicated concentrations)” value under setting [7] was “B (10-30% inhibition)”, the “LpxC enzyme assay rating (% inhibition at indicated concentrations)” value under setting [8] is recorded as “C (less than 10% inhibition)”, the “LpxC enzyme assay rating (% inhibition at indicated concentrations)” value under setting [9] is listed as “B (10-30% inhibition)” and the “LpxC enzyme assay rating (% inhibition at indicated concentrations)” value under setting [10] is on record as “B (10-30% inhibition)”.
As for `CCC(C)c1ccc(NC(=O)[C@H](O)[C@@H](O)C(=O)N2CCCC2)cc1` (stereo partly drawn) [Compound 68], the “LpxC enzyme assay rating (% inhibition at indicated concentrations)” value is on record as “C (less than 10% inhibition)” under setting [1]; “C (less than 10% inhibition)” under setting [2]; “C (less than 10% inhibition)” under setting [3]; “C (less than 10% inhibition)” under setting [4]; “C (less than 10% inhibition)” under setting [5]; “B (10-30% inhibition)” under setting [6]. Also, the “LpxC enzyme assay rating (% inhibition at indicated concentrations)” value is “B (10-30% inhibition)” under setting [7], “C (less than 10% inhibition)” under setting [8], “B (10-30% inhibition)” under setting [9] and “B (10-30% inhibition)” under setting [10].
Take `O=C(Nc1ccc(C#Cc2ccccc2)cc1)[C@H](O)[C@@H](O)C(=O)N1CCCC1` [Compound 63]: the “LpxC enzyme assay rating (% inhibition at indicated concentrations)” value under setting [1] was “B (10-30% inhibition)”; the “LpxC enzyme assay rating (% inhibition at indicated concentrations)” value under setting [2] is “B (10-30% inhibition)”; the “LpxC enzyme assay rating (% inhibition at indicated concentrations)” value under setting [3] is “B (10-30% inhibition)”; the “LpxC enzyme assay rating (% inhibition at indicated concentrations)” value under setting [4] is reported as “C (less than 10% inhibition)”; the “LpxC enzyme assay rating (% inhibition at indicated concentrations)” value under setting [5] was “B (10-30% inhibition)”; the “LpxC enzyme assay rating (% inhibition at indicated concentrations)” value under setting [6] is on record as “B (10-30% inhibition)”. The “LpxC enzyme assay rating (% inhibition at indicated concentrations)” value is, setting by setting: under setting [7], “B (10-30% inhibition)”; under setting [8], “A (greater than 30% inhibition)”; under setting [9], “A (greater than 30% inhibition)”; under setting [10], “A (greater than 30% inhibition)”.
For the compound `CN(C)CCCOc1ccc(NC(=O)[C@H](O)[C@@H](O)C(=O)N(C)C)cc1` [Compound 57], the “LpxC enzyme assay rating (% inhibition at indicated concentrations)” value runs as follows: under setting [1], “B (10-30% inhibition)”; under setting [2], “C (less than 10% inhibition)”; under setting [3], “B (10-30% inhibition)”; under setting [4], “C (less than 10% inhibition)”; under setting [5], “C (less than 10% inhibition)”; under setting [6], “C (less than 10% inhibition)”. Further, the “LpxC enzyme assay rating (% inhibition at indicated concentrations)” value is, setting by setting: under setting [7], “C (less than 10% inhibition)”; under setting [8], “C (less than 10% inhibition)”; under setting [9], “B (10-30% inhibition)”; under setting [10], “C (less than 10% inhibition)”.
`CNC(=O)[C@H](O)[C@@H](O)C(=O)Nc1ccc(N2CCN(C)CC2)cc1` [Compound 38]: the “LpxC enzyme assay rating (% inhibition at indicated concentrations)” value under setting [1] is “C (less than 10% inhibition)”; the “LpxC enzyme assay rating (% inhibition at indicated concentrations)” value under setting [2] is reported as “C (less than 10% inhibition)”; the “LpxC enzyme assay rating (% inhibition at indicated concentrations)” value under setting [3] is listed as “C (less than 10% inhibition)”; the “LpxC enzyme assay rating (% inhibition at indicated concentrations)” value under setting [4] is recorded as “C (less than 10% inhibition)”; the “LpxC enzyme assay rating (% inhibition at indicated concentrations)” value under setting [5] is “C (less than 10% inhibition)”; the “LpxC enzyme assay rating (% inhibition at indicated concentrations)” value under setting [6] was “C (less than 10% inhibition)”. Also, the “LpxC enzyme assay rating (% inhibition at indicated concentrations)” value runs as follows: under setting [7], “C (less than 10% inhibition)”; under setting [8], “C (less than 10% inhibition)”; under setting [9], “C (less than 10% inhibition)”; under setting [10], “B (10-30% inhibition)”.
